# Test results as given in patent US20230114728A1 (Venatorx Pharmaceuticals, Inc., priority 2019, published 2023).
# Columns and labels:
# Assay in all cases: Broth microdilution MIC in iron-depleted CAMHB (IDM)
# Type in all cases: cell-based
# A. baumannii ATCC 17978 = details: Acinetobacter baumannii, ATCC17978, read-out: Minimum Inhibitory Concentration, ATCC 17978
# Outline: (§1)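 CLSI broth microdilution in Chelex-treated cation-adjusted Mueller-Hinton broth, refortified with Ca, Mg and 10 μM ZnSO4, pH 7.3. Inoculum 2-8×10^5 CFU/mL; 37 °C for 16-20 h (Pseudomonas) or 20-24 h (Acinetobacter). MIC read visually as lowest concentration without growth.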
# [1] = test system: A. baumannii CDC-0033 producing NDM-1, and OXA-94; details: Acinetobacter baumannii, read-out: Minimum Inhibitory Concentration, CDC-0033
# Outline: as §1
# [2] = test system: A. baumannii CDC-0036 OXA-65, and OXA-24; details: Acinetobacter baumannii, read-out: Minimum Inhibitory Concentration, CDC-0036
# Outline: as §1
# [3] = test system: A. baumannii CDC-0083 producing NDM-1, PER-7, OXA-23, and OXA-69; details: Acinetobacter baumannii, read-out: Minimum Inhibitory Concentration, CDC-0083
# Outline: as §1
# [4] = test system: P. aeruginosa (ΔmexAB-oprM); details: Pseudomonas aeruginosa, read-out: Minimum Inhibitory Concentration, P. aeruginosa ΔmexAB-OprM
# Outline: as §1
# P. aeruginosa ATCC 35151 = details: Pseudomonas aeruginosa, ATCC35151; iron-depleted MHB (IDM); hyper-permeable strain; read-out: Minimum Inhibitory Concentration, P. aeruginosa ATCC 35151
# Outline: as §1
# [5] = test system: P. aeruginosa CDC-0054 producing VIM-4, OXA-50, and PAO; details: Pseudomonas aeruginosa, read-out: Minimum Inhibitory Concentration, P. aeruginosa CDC-0054
# Outline: as §1
# [6] = test system: P. aeruginosa CDC-0090 producing KPC-5, OXA-50, and PAO; details: Pseudomonas aeruginosa, read-out: Minimum Inhibitory Concentration, P. aeruginosa CDC-0090
# Outline: as §1
# [7] = test system: P. aeruginosa CDC-0095 producing OXA-50, and PAO; details: Pseudomonas aeruginosa, read-out: Minimum Inhibitory Concentration, P. aeruginosa CDC-0095
# Outline: as §1
smiles,measurement,setting,value
"CCN1CCN(C(=O)N[C@@H](C(=O)N[C@H]2Cc3ccc(F)c(C(=O)O)c3OB2O)c2ccc(O)c(O)c2)C(=O)C1=O [Example 211, (R)-3-((R)-2-(3,4-dihydroxyphenyl)-2-(4-ethyl-2,3-dioxopiperazine-1-carboxamido)acetamido)-7-fluoro-2-hydroxy-3,4-dihydro-2H-benzo[e][1,2]oxaborinine-8-carboxylic acid]",MIC,A. baumannii ATCC 17978,2 to 4 µg/mL
same,MIC,[1],32 to 64 µg/mL
same,MIC,[2],8 to 16 µg/mL
same,MIC,[3],> 128 µg/mL
same,MIC,[4],0.25 µg/mL
same,MIC,P. aeruginosa ATCC 35151,0.25 µg/mL
same,MIC,[5],8 to 16 µg/mL
same,MIC,[6],8 to 16 µg/mL
same,MIC,[7],8 to 16 µg/mL
